Test results reported in US20230065522A1 (Memorial Sloan Kettering Cancer Center, priority 2015, published 2023).

Tests used:
tumor cells = assay: in vivo confocal imaging of PARPi-fl in tumor cells (cell population drug kinetics)
Text: Concentration rapidly increases after a bolus dose followed by a slow decay (top).

[1] = clearance from circulation and metabolic stability after IV injection; assay type: in vivo, mice
PARP1 = biological target: T1, PARP1 (Homo sapiens, UniProt P09874); assay: correlation of PARPi-fl fluorescence with PARP1 antibody staining in FaDu tumor sections; assay type: in vivo; details: nuclear area, 222 pairs
T1 construct: endogenous in cells; host or cells: FaDu (human hypopharyngeal SCC, ATCC) subcutaneous xenografts in athymic nude mice
Procedure: 222 xy pairs pooled from n=3 tumor sections.
Next, 10 μm cryosections were fixed in 4% paraformaldehyde for 8 minutes, followed by blocking with 3% (v/v) goat serum (Sigma-Aldrich, St. Louis, Mo.) in PBS. Antibodies were diluted in 1% (w/v) BSA and 0.3% (v/v) Triton X-100 in PBS. Anti-PARP1 primary antibody (sc-7150, Santa Cruz Biotechnology, Santa Cruz, Calif.) was incubated overnight at 4° C. (1 μg/ml), followed by three 10-minute washes with PBS and incubation with secondary AlexaFluor® 680 goat anti-rabbit antibody (A21076, Molecular Probes, Eugene, Oreg.) for 1 hour at 4° C. (2 μg/ml). After another 5-minute PBS wash, sections were mounted with Mowiol® (Sigma-Aldrich, St. Louis, Mo.) containing Hoechst 33342 DNA Stain (Sigma-Aldrich, St. Louis, Mo.). […] Incubating sections with either a nonspecific rabbit IgG or PBS instead of primary antibody confirmed binding specificity.

FaDu tumors = assay: fluorescence endomicroscopy of excised FaDu tumors and control tissues; assay type: in vivo, mice; details: 90 minutes after PARPi-fl injection
Procedure: FaDu xenografts were imaged with a fluorescence endoscope that is available for both clinical and preclinical imaging (Cellvizio, Mauna Kea Technologies, Paris, France). It provides cellular to subcellular resolution and has a flexible confocal microprobe that enables versatile imaging. […] The microprobe was slowly moved over the tumor, tongue, or muscle, while a real-time video was recorded using a 488 nm excitation beam. The videos were converted to grayscale and the intensity was measured in 10 frames per video using ImageJ 1.49e Software. Topical application of PARPi-fl

[2] = system: orthotopic tongue tumors (FaDutdTomato); assay: topical application of PARPi-fl on orthotopic tongue tumors, confocal microscopy; assay type: in vivo, mice; details: one minute application
Procedure: For topical application, the tongues were dipped into a well of a 96-well plate filled with the respective incubation solution. […] This was followed by cleaning of the tongue with an alcohol pad to remove residual unbound compound. The animals were imaged in the IVIS Spectrum before and after PARPi-fl application using the appropriate filter sets for detection of PARPi-fl and the tdTomato fluorescent protein. Spectral unmixing was used to separate the signals for tdTomato, PARPi-fl and autofluorescence. The tdTomato fluorescent protein allows in vivo localization of the tumor. For comparability, all images were scaled to the same maximum radiant efficiency. Imaging was repeated with sections of the excised tongues after cryofixation. […] Adjacent sections were H&E stained for morphological evaluation.

U87 cells = assay: MTT assay; assay type: cell-based; details: U87 glioblastoma cells
U251 cells = assay: MTT assay; assay type: cell-based; details: U251 glioblastoma cells
[3] = toxicity after local administration on the oral mucosa; assay type: in vivo; details: mice
Procedure: […]. Mice received blood draws after 24 h and 48 h post administration, and were then sacrificed to receive a full necropsy.

Ca127 cells = assay: flow cytometry of PARPi-fl uptake with and without irradiation; assay type: cell-based, human
Procedure: (§1) First, cells were irradiated with 0, 2, 4 and 10 Gy in 25 cm^2 culture flasks using the J.L. Shepherd Cesium irradiator (J.L. Shepherd, San Fernando, Calif.) at a dose rate of 174 cGy/min. […] Following a wash with PBS, cells were trypsinized, counted, and portions of 0.5×10^6 cells of the single cell suspension were aliquoted into 1.5 ml Eppendorf tubes (Eppendorf, Hamburg, Germany). For each time point and irradiation dose, samples were either left unstained, were stained with PARPi-fl or olaparib/PARPi-fl. […] For staining, cells were washed with 1 ml FACS buffer (1% BSA (w/v) in PBS). […] Next, cells were centrifuged, the supernatant was aspirated and cells were re-suspended in 0.5 ml FACS buffer and transferred to 5 ml round bottom flow cytometry tubes (BD Biosciences, Bedford, Mass.) through a 40 μm strainer to remove doublets and left on ice until measurement in the flow cytometer (LSR® II, BD Biosciences, Bedford, Mass.). For each measurement, 10,000 events were counted. Raw data were processed in FlowJo software in order to calculate the changes in PARPi-fl uptake after irradiation. Cell clumps and debris were eliminated using the corresponding gates (forward and side scatter) for the unstained cell population. The gates were applied to all stained samples. PARPi-fl fluorescence was imaged in the FITC channel against side scatter (area).

FaDu cells = assay: as above; assay type: cell-based, human
Procedure: as §1

[4] = pharmacokinetic profile of ^18F-PARPi in a tumor-free mouse; assay type: in vivo
Procedure: Bone uptake amounts for 6% ID/g. While low, imaging in larger mammals typically reduces bone-uptake further due to slower metabolic degradation.
The blood half-life, serum stability, and metabolic stability of ^18F-PARPi was determined. Blood half-lives were determined after the injection of ˜15 μCi of the ^18F-labeled species into C57BL/6J (B6) mice and blood (5-10 μL) drawn at different time points via saphenous vein bleeds. FIGS. 13A-13B show an image acquired at 60 minutes. The drawn blood was both counted as well as analyzed using a HPLC-MS equipped with both a fluorescence detector as well as a parallel radiodetector. Organs were homogenized. Next, the bimodal imaging agent was extracted and radioactive/fluorescent metabolites were analyzed using HPLC. All major organs were weighed, and their […] activity was measured using a scintillation counter. The injected dose per gram tissue (% ID/g) was determined.

[5] = cited from earlier work
subcutaneous FaDu tumors = assay: ex vivo epifluorescence imaging of PARPi-fl uptake, subcutaneous FaDu xenografts and normal tissues
Procedure: Animals were sacrificed 90 minutes post-injection and tumors, tongues, trachea, and muscle were excised and imaged using epifluorescence imaging (IVIS Spectrum, PerkinElmer, Waltham, Mass.). […] This measure carries the unit [p/s/cm^2/sr]/[μW/cm^2] and is defined as the number of photons per second leaving a square centimeter of tissue and radiating into a solid angle of one steradian (sr).

[6] = oral mucosa, 20 μl of 400 μM solution
[7] = topical oral mucosa, 29 nmol in 50 μL, 10 min
[8] = 48 hours after 10 Gy irradiation
[9] = non-irradiated, olaparib co-incubated with PARPi-fl (50-fold excess)

T1 sequence (P09874 whole entry, species assumed): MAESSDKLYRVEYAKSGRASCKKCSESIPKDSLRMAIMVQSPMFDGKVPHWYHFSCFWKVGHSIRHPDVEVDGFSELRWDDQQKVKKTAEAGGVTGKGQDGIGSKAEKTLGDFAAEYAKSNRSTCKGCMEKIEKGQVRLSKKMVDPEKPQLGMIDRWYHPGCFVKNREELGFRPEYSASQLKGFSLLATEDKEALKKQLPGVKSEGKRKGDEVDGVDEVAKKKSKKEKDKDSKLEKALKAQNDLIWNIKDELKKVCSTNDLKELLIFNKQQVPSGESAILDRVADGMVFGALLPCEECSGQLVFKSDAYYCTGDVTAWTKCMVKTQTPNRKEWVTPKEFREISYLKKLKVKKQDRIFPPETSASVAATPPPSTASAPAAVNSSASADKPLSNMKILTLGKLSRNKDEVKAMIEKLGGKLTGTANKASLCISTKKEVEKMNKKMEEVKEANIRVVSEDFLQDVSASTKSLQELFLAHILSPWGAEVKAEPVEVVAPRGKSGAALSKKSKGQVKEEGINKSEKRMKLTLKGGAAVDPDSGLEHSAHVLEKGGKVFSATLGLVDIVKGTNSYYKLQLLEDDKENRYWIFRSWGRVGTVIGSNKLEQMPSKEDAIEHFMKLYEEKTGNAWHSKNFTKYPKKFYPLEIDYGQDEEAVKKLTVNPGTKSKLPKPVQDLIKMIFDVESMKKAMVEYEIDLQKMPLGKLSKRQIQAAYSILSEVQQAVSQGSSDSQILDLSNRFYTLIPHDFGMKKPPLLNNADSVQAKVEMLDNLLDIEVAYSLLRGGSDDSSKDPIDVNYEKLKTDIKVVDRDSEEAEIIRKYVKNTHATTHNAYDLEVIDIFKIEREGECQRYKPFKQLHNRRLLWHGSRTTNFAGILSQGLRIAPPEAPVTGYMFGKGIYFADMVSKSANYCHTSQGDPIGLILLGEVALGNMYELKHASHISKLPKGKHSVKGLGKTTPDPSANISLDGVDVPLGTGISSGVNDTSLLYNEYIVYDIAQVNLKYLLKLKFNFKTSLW

In the case of `Cc1cc(C)n2c1C=C1C=CC(CCC(=O)N3CCN(C(=O)c4cc(Cc5n[nH]c(=O)c6ccccc56)ccc4F)CC3)=[N+]1[B-]2(F)F` [PARPi-fl], the “average cellular drug concentration” value (tumor cells; tumor cells in vivo after bolus dose, FIG. 9B) is reported as 1.2 µM, the “cells targeted within tumor tissue” value (tumor cells; uptake within tumor tissue) is reported as “greater than 99.8%” and the “concentration in targeted tumor cells” value (tumor cells; uptake within tumor tissue) is reported as 1900 ± 500 nM. The metabolites ([1]; mice, 30 min post injection) was “less than 50%”, the β half-life ([1]; mice, IV injection, clearance from circulation) was 1.47 h and the “time of peak uptake in subcutaneous tumors” value ([1]; post injection) was 30 min. The “co-localization with PARP1 antibody staining, Rcoloc.” value (PARP1) was 0.986, the average signal intensity (FaDu tumors; FaDu tumors) was 35.4±8.6 AU and the average signal intensity (FaDu tumors; thigh muscle) was 15.1±2.4 AU. The average signal intensity (FaDu tumors; tongue) was 18.5±6.9 AU, the “penetration depth into tumor tissue” value [2] was “up to 300 μm” and the IC50 (U87 cells) was 24 µM. For the same molecule, the IC50 (U251 cells) was 5.5 µM, the “changes in clinical chemical and hematologic parameters” value [3, 6] was “no changes” and the local irritation [3, 6] was “no local irritation”. The ALP [3, 7] was 90 ± 18 IU/L, the “ALT (SGPT)” value [3, 7] was 31 ± 6 IU/L and the “AST (SGOT)” value [3, 7] was 67 ± 4 IU/L. The Albumin [3, 7] was 2.7 ± 0.2 g/dL, the BA % [3, 7] was 0.2 ± 0.3% and the BASOPHILS [3, 7] was 0.01 ± 0.02 K/μL. It also gave a BUN [3, 7] of 28 ± 2 mg/dL, a Calcium [3, 7] of 9.6 ± 0.2 mg/dL and a Chloride [3, 7] of 114 ± 1 mEq/L. It also gave a Cholesterol [3, 7] of 86 ± 8 mg/dL, a Creatinine [3, 7] of 0.24 ± 0.01 mg/dL and an EO % [3, 7] of 5.5 ± 1.0%. The EOSINOPHIL [3, 7] was 0.64 ± 0.55 K/μL, the GGT [3, 7] was 0 IU/L and the Globulin [3, 7] was 2.3 ± 0.7 g/dL. The Glucose [3, 7] was 229 ± 54 mg/dL, the HB [3, 7] was 15.1 ± 0.9 g/dL and the HCT [3, 7] was 50.4 ± 2.9%. For the same molecule, the LY % [3, 7] was 57.0 ± 10.9%, the LYMPHOCYT [3, 7] was 3.34 ± 1.07 K/μL and the MCH [3, 7] was 14.7 ± 0.4 pg. The MCHC [3, 7] was 30.0 ± 0.1 g/dL, the MCV [3, 7] was 49.3 ± 1.2 fL and the MO % [3, 7] was 1.9 ± 0.8%. It also gave an MONOCYTE [3, 7] of 0.10 ± 0.04 K/μL, an MPV [3, 7] of 6.1 ± 0.2 fL and an NE % [3, 7] of 29.5 ± 4.0%. The NEUTROPHI [3, 7] was 1.69 ± 0.04 K/μL, the PLT [3, 7] was 1077 ± 171 K/μL and the Phosphorus [3, 7] was 6 ± 1 mg/dL. The Potassium [3, 7] was 3.8 ± 0.7 mEq/L, the RBC [3, 7] was 10.24 ± 0.62 M/μL and the RDW [3, 7] was 23.4 ± 0.6%. For the same molecule, the Sodium [3, 7] was 151 ± 3 mEq/L, the “Total Bilirubin” value [3, 7] was 0.1 ± 0.0 mg/dL and the “Total Protein” value [3, 7] was 4.9 ± 0.8 g/dL. The WBC [3, 7] was 5.78 ± 0.90 K/μL, the “PARPi-fl signal compared to non-irradiated cells” value (Ca127 cells; [8]) was 136.0±16.6% and the “PARPi-fl signal compared to non-irradiated cells” value (FaDu cells; [8]) was 145.4±7.3%. It also gave a tissue permeability (tissue permeability) of 4.7±2.5 μm/s.

Molecule `CC1=CC(C)=[N+]2C1=Cc1ccc(CCC(=O)N3CCN(C(=O)c4cc(Cc5n[nH]c(=O)c6ccccc56)ccc4F)CC3)n1[B-]2(F)[18F]` (stereo not shown) [^18F-PARPi] has a bone uptake [4] of 6 % ID/g.

With `O=C(c1cc(Cc2n[nH]c(=O)c3ccccc23)ccc1F)N1CCN(C(=O)C2CC2)CC1` [olaparib, 4-[(3-[(4-cyclopropyl-carbonyl)piperazin-4-yl]carbonyl)-4-fluorophenyl]methyl (2H)phthalazin-1-one] the IC50 (U87 cells; Homo sapiens, U-87 MG) was 28 µM, the IC50 (U251 cells; Homo sapiens, U-251) was 8 µM and the “effect on PARPi-fl uptake” value (Ca127 cells; [9]) was “almost completely suppressed”. For the same molecule, the “effect on PARPi-fl uptake” value (FaDu cells; [9]) was “almost completely suppressed”, the excreted ([5]; ^14C-labeled olaparib, within 7 days) was “More than 86%” and the terminal half-life ([5]; after a 400 mg dose) was 11.9 h. For the same molecule, the tolerability ([5]; approved dose and schedule, 400 mg orally twice daily) was “well tolerated”, the “apparent volume of distribution” value ([5]; oral administration) was “more than 150 L” and the “time of peak plasma concentrations after dosing” value ([5]; oral administration) was 1 to 3 h. For the same molecule, the “inhibition of PARPi-fl tumor uptake by xenografts” value (subcutaneous FaDu tumors; coinjection with PARPi-fl) was “almost completely inhibited” and the “reduction of the fluorescent signal of the tumor” value (subcutaneous FaDu tumors; olaparib injected before PARPi-fl (50-fold excess, 30 min prior)) was 60%.
